# Where “and” joins values, the source holds several entries; their conditions need not be identical. Identical values can stand only once.
# Tests used:
# [1] = Lipophilicity determination by RP-HPLC; type: physicochemical; settings: RP-HPLC, logarithm of capacity factor k
# Method: It is evident from the graphs in Figure 1 that the correlation coefficients of the dependences of log k/log D6.5/log D7.4 have a value of r = 0.999 (n = 32), which means that the investigated compounds behave insignificantly differently in aqueous media with different pH. Moreover, lipophilicity was calculated as log P and Clog P using two prediction programs. […] Therefore, only log P values predicted by ACD/Percepta can be used for correlations with experimental values. These matches are shown in the graphs in Figure 2, and according to the correlation coefficient r~0.940 (n = 32), it can be argued that even the predicted lipophilicity values correlate with the experimentally measured ones. However, the largest variations were observed (no difference for series 1, 2) for compounds substituted with 2-Cl, 2-CF3, 2,5-Cl, 4-F, 4-CF3, and 3,5-F, 3,5-Cl. These are mainly substituents capable of forming hydrogen and other types of non-bonding interactions both with the surrounding environment and within the molecule. Overall, series 1 (3-CF3) is less lipophilic than series 2 (4-CF3), but the differences in the experimental data are insignificant. Unsubstituted derivatives 1a/2a are the least lipophilic compounds, while derivatives 1o/2o (3,5-Cl) and 1p/2p (3,5-CF3) are the most lipophilic compounds.
# Experimental determination of lipophilicity values (log k, log D6.5, and log D7.4) was performed under the same conditions and on the same device as described by Strharsky et al..
# [2] = tested on: Staphylococcus aureus ATCC 29213; test: MIC, microtitration broth method; type: cell-based; settings: ATCC29213, S. aureus ATCC 29213
# [3] = tested on: methicillin-resistant S. aureus SA 3202 (MRSA1); test: MIC, microtitration broth method; type: cell-based; settings: Staphylococcus aureus; MRSA SA 3202
# [4] = tested on: methicillin-resistant S. aureus SA 630 (MRSA2); test: MIC, microtitration broth method; type: cell-based; settings: Staphylococcus aureus; MRSA SA 630
# [5] = tested on: methicillin-resistant S. aureus 63718 (MRSA3); test: MIC, microtitration broth method; type: cell-based; settings: Staphylococcus aureus; MRSA 63718
# [6] = tested on: Enterococcus faecalis ATCC 29212; test: MIC, microtitration broth method; type: cell-based; settings: ATCC29212, E. faecalis reference strain
# [7] = tested on: vancomycin-resistant E. faecalis VRE 342B (VRE1); test: MIC, microtitration broth method; type: cell-based, Enterococcus faecalis
# [8] = tested on: vancomycin-resistant E. faecalis VRE 368 (VRE2); test: MIC, microtitration broth method; type: cell-based, Enterococcus faecalis
# [9] = tested on: vancomycin-resistant E. faecalis VRE 725B (VRE3); test: MIC, microtitration broth method; type: cell-based, Enterococcus faecalis
# [10] = tested on: M. smegmatis ATCC 700084; test: In vitro antimycobacterial evaluation (MIC); type: cell-based, Mycobacterium smegmatis; settings: for MIC: Mycolicibacterium smegmatis, ATCC700084
# [11] = tested on: Staphylococcus aureus ATCC 29213; test: MBC, agar aliquot subculture method; type: cell-based; settings: ATCC29213, S. aureus ATCC 29213
# [12] = tested on: methicillin-resistant S. aureus SA 3202 (MRSA1); test: MBC, agar aliquot subculture method; type: cell-based; settings: Staphylococcus aureus; MRSA SA 3202
# [13] = tested on: methicillin-resistant S. aureus SA 630 (MRSA2); test: MBC, agar aliquot subculture method; type: cell-based; settings: Staphylococcus aureus; MRSA SA 630
# [14] = tested on: methicillin-resistant S. aureus 63718 (MRSA3); test: MBC, agar aliquot subculture method; type: cell-based; settings: Staphylococcus aureus; MRSA 63718
# [15] = tested on: Enterococcus faecalis ATCC 29212; test: MBC, agar aliquot subculture method; type: cell-based; settings: ATCC29212, E. faecalis reference strain
# [16] = tested on: vancomycin-resistant E. faecalis VRE 342B (VRE1); test: MBC, agar aliquot subculture method; type: cell-based, Enterococcus faecalis
# [17] = tested on: vancomycin-resistant E. faecalis VRE 368 (VRE2); test: MBC, agar aliquot subculture method; type: cell-based, Enterococcus faecalis
# [18] = tested on: vancomycin-resistant E. faecalis VRE 725B (VRE3); test: MBC, agar aliquot subculture method; type: cell-based, Enterococcus faecalis
# [19] = tested on: human monocytic leukemia cell line THP-1; test: In vitro cell viability (cytotoxicity screening); type: cell-based; settings: 24 h, medium with 10% FBS, ± SD, n = 6
# Method: The investigated anilides can be divided into three groups. […] Higher concentrations (than 10 or 30 µM) were not possible to evaluate due to precipitation of the tested compounds in water medium. Based on all these observations, it can be concluded that the high antimicrobial activity of 3,5-CF3-substituted compounds is associated with significant cytotoxic effect against eukaryotic cells. On the other hand, the other still effective compounds, especially agents 1j and 1o, have an insignificant toxic effect, which makes them interesting for further study.
# Human monocytic leukemia THP-1 cells obtained from the European Collection of Cell Cultures (ECACC, Salisbury, UK) were used for in vitro antiproliferative assays. A recently described procedure was used.
# [20] = tested on: S. aureus ATCC 29213; test: MTT assay, inhibition of bacterial respiration; type: cell-based, Staphylococcus aureus
# Source text: The MTT assay can be used to assess cell growth by measuring respiration. Respiratory activity of bacterial cells (which is finally reflected in their viability) less than 70% after exposure to the MIC values for each tested compound is considered as a positive result of this assay. This low level of cell oxidative metabolism indicates inhibition of cell growth by inhibition of respiration. The lowest multiples of MIC values that achieved more than 70% inhibition of S. aureus ATCC 29213 viability (%) are shown in Table 3.
# The percent inhibition of respiration of S. aureus ATCC 29213 was determined through the MTT assay. The assay was performed as described recently. The percent viability is calculated through the comparison of a measured value and that of the uninhibited control: % viability = OD570E/OD570P × 100, where OD570E is the reading from the compound-exposed cells, while OD570P is the reading from the uninhibited cells (positive control). Cytotoxic potential is determined by a percent viability of <70% [46, 47].
# [21] = tested on: S. aureus/MRSA; test: Antistaphylococcal activity, summary over strains; type: cell-based, Staphylococcus aureus; settings: for MIC: Staphylococcus aureus, MRSA, average over the named compounds and strains, read-out: average MIC against S. aureus/MRSA; for antistaphylococcal MICs/MBCs: range over S. aureus and MRSA isolates and over the named compounds
# [22] = tested on: E. faecalis/VRE; test: Anti-enterococcal activity, summary over strains; type: cell-based, Enterococcus faecalis; settings: for MIC: Enterococcus faecalis, VRE, average over the named compounds and strains, read-out: average MIC against E. faecalis/VRE; for anti-enterococcal MICs/MBCs: range over E. faecalis and VRE isolates and over the named compounds
# [23] = tested on: M. tuberculosis H37Ra; design: method as in ref 26 = [26]; PMID 30087309; doi:10.3390/ijms19082318; 26. Pospisilova S. Kos J. Michnova H. Kapustikova I. Strharsky T. Oravec M. Moricz A.M. Bakonyi J. Kauerova T. Kollar P. Synthesis and spectrum of biological activities of novel N -arylcinnamamides In; settings: average over the named compounds; cited from earlier work
# [24] = tested on: Mycobacterium marinum CAMP 5644; test: In vitro antimycobacterial evaluation (MIC); type: cell-based; settings: Mycobacterium marinum, CAMP5644, M. marinum CAMP 5644
# [25] = tested on: M. smegmatis and M. marinum; test: Antimycobacterial activity, summary over both strains; type: cell-based; settings: average over the named compounds and strains; read-out: average MIC against M. smegmatis and M. marinum
SMILES,log k [1],MIC [2],MIC [3],MIC [4],MIC [5],MIC [6],MIC [7],MIC [8],MIC [9],MIC [10],MBC [11],MBC [12],MBC [13],MBC [14],MBC [15],MBC [16],IC50 [19],Conc.: lowest multiple of MIC with at least 70% inhibition of respiratory activity [20],Conc.: the same concentration as multiple of MBC [20],melting point,also measured
"O=C(/C=C/c1cccc(C(F)(F)F)c1)Nc1cc(Cl)cc(Cl)c1 [1o, (2E)-N-(3,5-Dichlorophenyl)-3-[3-(trifluoromethyl)phenyl]prop-2-enamide]",1.2028,0.694 µM,1.39 µM,0.694 µM,0.694 µM,11.1 µM,22.2 µM,22.2 µM,22.2 µM,11.1 µM,0.694 µM,2.78 µM,0.694 µM,1.39 µM,22.2 µM,22.2 µM,> 30 µM,0.25× MIC (0.25× MBC),0.25× MIC (0.25× MBC),124 to 126 °C,MBC [17]: 22.2 µM; MBC [18]: 22.2 µM; MIC [21]: ~1.4 µM; antistaphylococcal MICs/MBCs [21]: 0.15 to 5.57 µM and 0.146 to 5.57 µM; MIC [22]: ~15 µM; anti-enterococcal MICs/MBCs [22]: 2.34 to 44.5 µM
"O=C(/C=C/c1cccc(C(F)(F)F)c1)Nc1ccc(Cl)cc1 [1g, (2E)-N-(4-Chlorophenyl)-3-[3-(trifluoromethyl)phenyl]prop-2-enamide]",0.7982,24.6 µM,12.3 µM,6.14 µM,12.3 µM,–,–,–,–,24.6 µM,49.1 µM,24.6 µM,6.14 µM,24.6 µM,–,–,> 10 µM,4 × MIC,2 × MBC,162 to 164 °C,–
"O=C(/C=C/c1cccc(C(F)(F)F)c1)Nc1cccc(F)c1 [1c, (2E)-N-(3-Fluorophenyl)-3-[3-(trifluoromethyl)phenyl]prop-2-enamide]",0.6333,12.9 µM,25.9 µM,12.9 µM,12.9 µM,–,–,–,–,51.7 µM,25.9 µM,25.9 µM,12.9 µM,12.9 µM,–,–,> 30 µM,2 × MIC,1 × MBC,113 to 115 °C,–
O=C(/C=C/c1ccccc1)Nc1ccc(Cl)c(Cl)c1 [3e],–,–,–,–,–,–,–,–,–,–,–,–,–,–,–,–,–,–,–,–,average MIC against M. tuberculosis H37Ra [23]: ~ 24 µM
"NNC(=O)c1ccncc1 [INH, isoniazid, reference compound]",–,–,–,–,–,–,–,–,–,117 µM,–,–,–,–,–,–,–,–,–,–,MIC [24]: 36.6 µM
"O=C(/C=C/c1ccc(C(F)(F)F)cc1)Nc1cccc(C(F)(F)F)c1 [2i, (2E)-N-[3-(Trifluoromethyl)phenyl]-3-[4-(trifluoromethyl)phenyl]prop-2-enamide]",0.8867,1.39 µM,2.78 µM,1.39 µM,2.78 µM,11.1 µM,11.1 µM,11.1 µM,11.1 µM,–,1.39 µM,2.78 µM,1.39 µM,2.78 µM,11.1 µM,22.3 µM,> 10 µM,1× MIC (1× MBC),1× MIC (1× MBC),134 to 136 °C,MIC MS [10]: no effect; MBC [17]: 44.5 µM; MBC [18]: 11.1 µM; MIC [21]: ~1.4 µM; antistaphylococcal MICs/MBCs [21]: 0.15 to 5.57 µM and 0.146 to 5.57 µM; MIC [22]: ~15 µM; anti-enterococcal MICs/MBCs [22]: 2.34 to 44.5 µM
"CC1(C)S[C@@H]2[C@H](NC(=O)[C@H](N)c3ccccc3)C(=O)N2[C@H]1C(=O)O [AMP, ampicillin, reference compound]",–,5.72 µM,45.8 µM,45.8 µM,45.8 µM,2.81 µM,11.5 µM,11.5 µM,11.5 µM,–,> 5.72 µM,> 45.8 µM,> 45.8 µM,> 45.8 µM,2.81 µM,11.5 µM,–,8× MIC (>8× MBC),8× MIC (>8× MBC),–,MBC [17]: 11.5 µM; MBC [18]: 11.5 µM
"O=C(/C=C/c1cccc(C(F)(F)F)c1)Nc1cc(C(F)(F)F)cc(C(F)(F)F)c1 [1p, (2E)-N-[3,5-bis(Trifluoromethyl)phenyl]-3-[3-(trifluoromethyl)phenyl]prop-2-enamide]",1.3648,1.17 µM,2.34 µM,1.17 µM,0.585 µM,–,–,–,–,9.36 µM,1.17 µM,2.34 µM,1.17 µM,1.17 µM,–,–,6.7 ± 1.1 µM,1× MIC (1× MBC),1× MIC (1× MBC),147 to 149 °C,MIC [25]: ~4.1 µM
